Experiments:
Assay type in all cases: in vivo
control mice = experiment: Mortality after anti-CD3ε antibody in control mice pre-treated with mifepristone (GR antagonist)
Procedure: (§1) Animal husbandry and plasma sampling: Mice were housed on a 12 h/12 h light/dark cycle with ad libitum access to rodent chow. Blood for measurement of corticosterone and cytokines was obtained by rapid retroorbital phlebotomy into heparinized capillary tubes with a total time from first handling the animal to completion of bleeding not exceeding 30 s. Plasma was separated by centrifugation and stored at −80° C. until assay. Unless otherwise noted, all mice used were 6-10 weeks old and of a C57BL/6×129/Sv genetic background.
(§2) Pharmacologic and antibody treatment: Mice were injected intraperitoneally 100 μg anti-CD3p antibody (145-2C11) diluted in 250 μl PBS. Dexamethasone-treated mice were injected intraperitoneally with 200 μg dexamethasone phosphate just prior to and eight hours after anti-CD3ε antibody challenge. Neutralizing anti-IFNγ antibody (H22, 50 μg) was injected intraperitoneally one day before anti-CD3ε antibody administration as described previously. See, e.g., Ferran, C. et al., Eur. J. Immunol, 21:2349-2353 (1991). Mifepristone (RU 486, Sigma) was dissolved in 100% ethanol (50 mg/ml). Mifepristone-treated mice were given 0.5 mg (diluted in sesame oil) s.c. the night before and one hour prior to inflammatory challenge. […]

[1] = system: adrenalectomized control mice; experiment: Mortality after anti-CD3ε antibody in adrenalectomized control mice
Procedure: Adrenalectomy: Mice were adrenalectomized as previously described and rested one week before being subjected to experimentation. See, e.g., Muglia, L. J. et al, J. Clin. Invest., 105:1269-1277 (2000).
Pharmacologic and antibody treatment: Mice were injected intraperitoneally 100 μg anti-CD3p antibody (145-2C11) diluted in 250 μl PBS. Dexamethasone-treated mice were injected intraperitoneally with 200 μg dexamethasone phosphate just prior to and eight hours after anti-CD3ε antibody challenge. Neutralizing anti-IFNγ antibody (H22, 50 μg) was injected intraperitoneally one day before anti-CD3ε antibody administration as described previously. See, e.g., Ferran, C. et al., Eur. J. Immunol, 21:2349-2353 (1991). Mifepristone (RU 486, Sigma) was dissolved in 100% ethanol (50 mg/ml). Mifepristone-treated mice were given 0.5 mg (diluted in sesame oil) s.c. the night before and one hour prior to inflammatory challenge. Cox-2 selective inhibitor-treated mice were given 300 μg of either SC-236 or NS-398 suspended in PBS/1% Tween-80 or vehicle twice a day for two days by oral gavage as previously described by Gross, G. et al, Am J. Physiol. Regul. Integr. Comp. Physiol., 278:R^1415-R^1423 (2000).

TGRko mice = experiment: Mortality of TGRko mice after polyclonal T cell activation with anti-CD3ε antibody; conditions: 100 μg anti-CD3ε antibody i.p., treatment before (and after) challenge
Procedure: as §1
Generation of TGRko mice: To build a TGRko targeting vector (pGRloxPneo), a loxP site was inserted into the unique Sac I site in the GR gene region upstream of exon 2 between exons 1B and 1C. A PGKneo (gene encoding for resistance to neomycin) cassette was then subcloned containing flanking loxP sites into intron 2 of the GR gene using oligonucleotide linkers. To obtain ES clones having replaced one copy of the endogenous murine GR locus with the GRloxPneo allele, TC1 ES cells were electroporated in the presence of linearized pGRloxPneo as has previously been described (See, e.g., Muglia, L. J. et al., J. Clin. Invest., 93:2066-2072 (1994)). DNA from 87 G418 resistant embryonic stem cell (ES) clones was analyzed by Southern blot, employing a probe external to the flanking regions within our targeting vector. […]

IL-2 = experiment: Plasma IL-2 after anti-CD3ε antibody (ELISA); conditions: TGRko mice; dexamethasone 200 μg before and 8 hours after anti-CD3ε antibody
Procedure: as §1
Cytokine Measurements: Plasma cytokines were measured according to manufacturer's instructions (Pharmingen).
as §2

For `CC#C[C@]1(O)CC[C@H]2[C@@H]3CCC4=CC(=O)CCC4=C3[C@@H](c3ccc(N(C)C)cc3)C[C@@]21C` [mifepristone], the “susceptibility to the lethal effects of T cell activation” value (control mice; control mice, mifepristone+vehicle (m/v) compared to vehicle controls (v/v)) was “significantly more susceptible”.

With `NS(=O)(=O)c1ccc(-n2nc(C(F)(F)F)cc2-c2ccc(Cl)cc2)cc1` [SC-236] the protection from mortality (control mice; control mice treated with mifepristone+SC-236 (m/s) compared to vehicle-treated counterparts) was “significantly protected”, the “mice died within eight hours of anti-CD3ε antibody treatment” value ([1]; ADX+SC-236 (ADX+vehicle 4/5, Sham operated+vehicle 0/3)) was 2/6 and the rescue from mortality ([1]; adrenalectomized control mice, shorter timescale) was “essentially the same degree of rescue”. The “mortality / lethality after anti-CD3ε antibody administration” value (TGRko mice) was “Protection from lethality”.

`C[C@@H]1C[C@H]2[C@@H]3CCC4=CC(=O)C=C[C@]4(C)[C@@]3(F)[C@@H](O)C[C@]2(C)[C@@]1(O)C(=O)CO` [dexamethasone] was tested, and the “plasma IL-2” value (IL-2) was “no significant effect”.

— US20040022789A1, “Methods and compositions for treating T cell mediated inflammatory/autoimmune diseases and disorders in subjects having a glucocorticoid regulation deficiency” (The Washington University, priority 2002, published 2004)
